Data as given in DBAASP.
Converted amounts (≈) assume the structure as drawn. Each block holds one compound with its values, some of them ahead of it.

Columns and labels:
Test in all cases: ≥ marks a high value that may be exact or a test limit, other limits are often not marked, values filed in µg/mL are converted to µM
[1] = test system: Yersinia pseudotuberculosis YPIII
Bacillus megaterium Bm11 = test system: Bacillus megaterium Bm11
Staphylococcus capitis 1 = test system: Staphylococcus capitis 1
[2] = test system: Candida albicans ATCC 10231
[3] = test system: Staphylococcus aureus Cowan 1
[4] = test system: Escherichia coli ATCC 25922
Proteus mirabilis = test system: Proteus mirabilis
Pseudomonas aeruginosa = test system: Pseudomonas aeruginosa
Candida albicans = test system: Candida albicans
Staphylococcus aureus = test system: Staphylococcus aureus
Salmonella typhimurium = test system: Salmonella typhimurium
Shigella dysenteriae = test system: Shigella dysenteriae
Serratia marcescens = test system: Serratia marcescens
Escherichia coli = test system: Escherichia coli
Micrococcus luteus = test system: Micrococcus luteus
Klebsiella pneumoniae = test system: Klebsiella pneumoniae
[5] = test system: Aeromonas hydrophila BCRC 13018
[6] = test system: Streptococcus agalactiae BCRC 10787
Vibrio vulnificus 204 = test system: Vibrio vulnificus 204
Vibrio alginolyticus = test system: Vibrio alginolyticus
[7] = test system: Streptococcus agalactiae 819
[8] = test system: Enterococcus faecalis BCRC 10066
[9] = test system: Pseudomonas aeruginosa ATCC 19660

MIC [1]: ≥ 40 µM
MIC (Bacillus megaterium Bm11): 5 µM (≈ 6.84 µg/mL)
MIC (Staphylococcus capitis 1): 20 µM (≈ 27.4 µg/mL)
MIC [2]: 10 µM (≈ 13.7 µg/mL)
MIC [3]: 20 µM (≈ 27.4 µg/mL)
MIC [4]: > 40 µM
Structure (SMILES): CC[C@H](C)[C@H](NC(=O)CNC(=O)[C@H](CO)NC(=O)[C@H](CC(C)C)NC(=O)[C@H](C)NC(=O)[C@H](CCCN=C(N)N)NC(=O)CNC(=O)[C@@H](NC(=O)[C@H](CC(C)C)NC(=O)[C@@H]1CCCN1C(=O)[C@H](CC(C)C)NC(=O)[C@@H](N)Cc1ccccc1)[C@@H](C)CC)C(=O)N[C@@H](CC(C)C)C(N)=O [FLPLIGRALSGIL]

MIC (Proteus mirabilis): ≥ 98.5 µM
MIC (Pseudomonas aeruginosa): 49.2 µM (≈ 99.9 µg/mL)
MIC (Candida albicans): 73.9 µM (≈ 150 µg/mL)
MIC (Staphylococcus aureus): 15 µM (≈ 30.4 µg/mL)
MIC (Salmonella typhimurium): 11.1 µM (≈ 22.5 µg/mL)
MIC (Shigella dysenteriae): 4.92 µM (≈ 9.99 µg/mL)
MIC (Serratia marcescens): ≥ 98.5 µM
MIC (Escherichia coli): 5 µM (≈ 10.1 µg/mL)
MIC (Micrococcus luteus): 1.23 µM (≈ 2.5 µg/mL)
MIC (Klebsiella pneumoniae): 4.92 µM (≈ 9.99 µg/mL)
Structure (SMILES): CC(C)C[C@@H]1NC(=O)CNC(=O)[C@H](CO)NC(=O)[C@H](C(C)C)NC(=O)CNC(=O)[C@@H](NC(=O)[C@H](CC(C)C)NC(=O)[C@@H](NC(=O)[C@H](CCCCN)NC(=O)[C@H](CCCCN)NC(=O)CNC(=O)[C@@H](NC(=O)CNC(=O)[C@H](CC(C)C)NC(=O)[C@@H](NC(=O)[C@H](CCCCN)NC(=O)[C@H](CO)NC(=O)[C@H](CC(C)C)NC(=O)[C@H](CC(C)C)NC(=O)CN)C(C)C)C(C)C)C(C)C)CSSC[C@@H](C(=O)O)NC1=O [GLLSKVLGVGKKVLCGVSGLC]

MIC [5]: 7.62 µM (≈ 19.5 µg/mL)
MIC [6]: 7.62 µM (≈ 19.5 µg/mL)
MIC (Vibrio vulnificus 204): 7.62 µM (≈ 19.5 µg/mL)
MIC (Vibrio alginolyticus): 7.62 µM (≈ 19.5 µg/mL)
MIC [7]: 7.62 µM (≈ 19.5 µg/mL)
MIC [8]: 7.62 µM (≈ 19.5 µg/mL)
MIC [9]: 7.62 µM (≈ 19.5 µg/mL)
Structure (SMILES): CC[C@H](C)[C@H](NC(=O)[C@H](C)NC(=O)[C@H](CC(=O)O)NC(=O)[C@H](Cc1c[nH]c2ccccc12)NC(=O)[C@@H](NC(=O)[C@H](CS)NC(=O)[C@H](CCC(=O)O)NC(=O)CN)[C@@H](C)CC)C(=O)N[C@@H](Cc1ccccc1)C(=O)N[C@@H](Cc1cnc[nH]1)C(=O)NCC(=O)N[C@@H](C)C(=O)N[C@@H](CCCCN)C(=O)N[C@@H](Cc1cnc[nH]1)C(=O)N[C@@H](Cc1ccccc1)C(=O)N[C@@H](CC(C)C)C(=O)N[C@@H](Cc1cnc[nH]1)C(=O)N[C@@H](CCCN=C(N)N)C(=O)N[C@@H](CC(C)C)C(=O)N[C@H](C(=O)N[C@@H](CC(N)=O)C(=O)N1CCC[C@H]1C(N)=O)C(C)C [GECIWDAIFHGAKHFLHRLVNP]

MIC [1]: ≥ 40 µM
MIC (Bacillus megaterium Bm11): 5 µM (≈ 6.77 µg/mL)
MIC (Staphylococcus capitis 1): 20 µM (≈ 27.1 µg/mL)
MIC [2]: 10 µM (≈ 13.5 µg/mL)
MIC [3]: ≥ 40 µM
MIC [4]: > 40 µM
Structure (SMILES): CC[C@H](C)[C@H](NC(=O)CNC(=O)[C@H](CO)NC(=O)[C@H](CC(C)C)NC(=O)[C@@H](NC(=O)[C@H](CCCN=C(N)N)NC(=O)CNC(=O)[C@@H](NC(=O)[C@H](C)NC(=O)[C@@H]1CCCN1C(=O)[C@H](CC(C)C)NC(=O)[C@@H](N)Cc1ccccc1)[C@@H](C)CC)C(C)C)C(=O)N[C@@H](CC(C)C)C(N)=O [FLPAIGRVLSGIL]
